Patent US5310929A, “Prodrugs of imidazole carboxylic acids as angiotensin II receptor antagonists” (E. I. Du Pont de Nemours and Company, priority 1992, dated 1994)

Key:
[1] = target: AII receptor; assay: Ligand-receptor binding assay, displacement of [125I]AII from rat adrenal cortex particulate fraction; conditions: 0.05 nM [125I]AII, 1 h incubation, read-out: Angiotensin II Receptor Binding IC50
Protocol: Angiotensin-II (AII) produces numerous biological responses (e.g. vasoconstriction) through stimulation of its receptors on cell membranes. […] After a 1 h incubation the reaction was terminated by addition of cold assay buffer. The bound and free radioactivity were rapidly separated through glass-fiber filters, and the trapped radioactivity was quantitated by scintillation counting.

[2] = tested on: Renal Hypertensive Rats; assay: Antihypertensive effect in awake renal hypertensive rats (ligation of left renal artery); format: in vivo, rat; conditions: for ED30: Rattus norvegicus, oral, read-out: Oral Antihypertensive Effects in Renal Hypertensive Rats ED30
Text: This procedure increases blood pressure by increasing renin production with consequent elevation of AII levels. […] Arterial blood pressure is continuously measured directly through a carotid artery cannula and recorded using a pressure transducer and a polygraph. Blood pressure levels after treatment are compared to pretreatment levels to determine the antihypertensive effects of the compounds.

Q: How did the IC50 [1] turn out when `CCCc1nc(CC)c(C(=O)OCN(C)C)n1Cc1ccc(-c2ccccc2-c2nnn[nH]2)cc1` [Example 2, (N,N-Dimethylamino)methyl 4-ethyl-2-propyl-1-[[2'-(tetrazol-5-yl)biphenyl-4-yl]methyl]imidazole-5-carboxylate] was run?
A: 100 nM

Q: Which IC50 [1] does the source give for `CCCc1nc(CC)c(C(=O)OCOC(=O)C(C)(C)C)n1Cc1ccc(-c2ccccc2-c2nnn[nH]2)cc1` [Example 5, Trimethylacetoxymethyl 4-ethyl-2-propyl-1-[[2'-(tetrazol-5-yl)biphenyl-4-yl]methyl]imidazole-5-carboxylate] here?
A: 2 nM

Q: And the ED30 [2]?
A: 0.03 mg/kg

Q: How did the IC50 [1] turn out when `CCCc1nc(CC)c(C(=O)OCOC(=O)OC)n1Cc1ccc(-c2ccccc2-c2nn[nH]n2)cc1` [Example 7] was run?
A: 3 nM

Q: What does the source list for `CCCc1nc(CC)c(C(=O)OCOC(=O)OC(C)(C)C)n1Cc1ccc(-c2ccccc2-c2nnn[nH]2)cc1` [Example 9, t-Butoxycarbonyloxymethyl 4-ethyl-2-propyl-1-[[2'-(tetrazol-5-yl)biphenyl-4-yl]methyl]imidazole-5-carboxylate]?
A: IC50 [1]: 6 nM; ED30 [2]: 0.02 mg/kg

Q: Which IC50 [1] does the source give for `CCCc1nc(CC)c(C(=O)OC(C)OC(=O)OC)n1Cc1ccc(-c2ccccc2-c2nn[nH]n2)cc1` (stereo not drawn) [Example 11] here?
A: 4 nM

Q: And the ED30 [2]?
A: 0.02 mg/kg

Q: What does the source list for `CCCc1nc(CC)c(C(=O)OC(C)OC(=O)OC(C)(C)C)n1Cc1ccc(-c2ccccc2-c2nn[nH]n2)cc1` (stereo not drawn) [Example 12]?
A: IC50 [1]: 5 nM; ED30 [2]: 0.3 mg/kg

Q: What does the source list for `CCCc1nc(CC)c(C(=O)OCc2oc(=O)oc2C)n1Cc1ccc(-c2ccccc2-c2nn[nH]n2)cc1` [Example 13, 1,3-Dioxa-5-methyl-cyclopenten-2-one-4-ylmethyl 4-ethyl-2-propyl-1-[[2'-(tetrazol-5-yl)biphenyl-4-yl]methyl]imidazole-5-carboxylate]?
A: IC50 [1]: 3 nM; ED30 [2]: 0.1 mg/kg

Q: What does the source list for `CCCc1nc(CC)c(C(=O)OCc2oc(=O)oc2C(C)(C)C)n1Cc1ccc(-c2ccccc2-c2nn[nH]n2)cc1` [Example 14, (5-(1.1-Dimethylethyl)-1.3-dioxa-cyclopenten-2-one-4-yl)methyl 4-ethyl-2-propyl-1-[[2'-(tetrazol-5-yl)biphenyl-4-yl)methyl]imidazole-5-carboxylate]?
A: IC50 [1]: 3 nM; ED30 [2]: 0.3 mg/kg

Q: How did the IC50 [1] turn out when `CCCc1nc(CC)c(C(=O)OCc2oc(=O)oc2-c2ccccc2)n1Cc1ccc(-c2ccccc2-c2nn[nH]n2)cc1` [Example 15] was run?
A: 6 nM

Q: What about the ED30 [2] of the same compound?
A: 0.3 mg/kg

Q: Which “Oral Antihypertensive Effects in Renal Hypertensive Rats ED30” value [2] does the source give for “Methoxydimethylacetoxymethyl 4-ethyl-2-propyl-1-[[2'-(tetrazol-5-yl)biphenyl-4-yl]methyl]imidazole-5-carboxylate [Example 8]” here?
A: 0.03 mg/kg

Q: For “Trimethylacetoxymethyl 4-ethyl-2-propyl-1-[[2'-(N-trimethylacetoxymethyl(tetrazol-5-yl))biphenyl- 4-yl]methyl]imidazole-5-carboxylate [Example 6]”, which IC50 [1] is on record?
A: 20 nM
